Entries after “also recorded” stand apart in the source; their conditions may differ.
Key:
[1] = test system: Crizotinib resistant EML4-ALK A549 NSCLC cells; assay: CCK-8 proliferation assay of Crizotinib naive or resistant EML4-ALK A549 NSCLC cells; assay type: cell-based; details: 4 days treatment, normalized to 0 nM control
Description: (§1) Cells were treated with an array of % dilutions of LNS8801 for 4 days with 4 technical replicates for each condition (500 nM, 250 nM, 125 nM, 62.5 nM, 31.25 nM, 15.63 nM, 7.81 nM, 3.91 nM, 1.95 nM, 0.98 nM and 0 nM). After 4 days, relative viable cells were determined by incubating cells with CCK-8 proliferation dye for 1 hour, and measuring absorbance at 450 nm. Relative cell numbers were calculated by subtracting baseline absorbance of the media followed by normalization to the 0 nM treated control wells.
After 4 days, relative viable cells were determined by incubating cells with CCK-8 proliferation dye for 1 hour, and measuring absorbance at 450 nm. Relative cell numbers were calculated by subtracting baseline absorbance of the media followed by normalization to the 0 nM treated control wells.

[2] = test system: EML4-ALK A549 NSCLC cells; assay: CCK-8 proliferation assay of parental and EML4-ALK A549 NSCLC cells; assay type: cell-based; details: EML4-ALK A549 cells compared with parental (control) A549 cells, 4 days treatment, 0.98-500 nM
Description: as §1, with “Parental cells and EML4-ALK A549 NSCLC cells (5,000 cells) were plated in a 96-well tissue culture plate. Cells” for “Cells”, “½” for “%”, “[…]” for “15.63”, “[…],” for “3.91 nM,”, “Incubating” for “incubating”, “hour” for “hour,”

Q: CC(=O)c1ccc2c(c1)[C@@H]1C=CC[C@@H]1[C@H](c1cc3c(cc1Br)OCO3)N2 [LNS8801] was tested. Which “relative viability of Crizotinib-resistant cells” value [1] did it give?
A: The value was “able to effectively reduce viability; also recorded: has activity in the setting of ALK-inhibitor resistance”.

Q: And the “cell viability (relative viable cells)” value [2]?
A: Its value is “effectively reduced EML4-ALK A549 cell viability over control A549 cells; also recorded: ALK+ NSCLC cells are more sensitive to LNS8801 than isogenic controls”.

Reference: US20240376547A1, “ONCOLOGIC VARIATIONS ASSOCIATED WITH CANCER AND METHODS OF TREATMENT” (LINNAEUS THERAPEUTICS, INC., priority 2021, published 2024)
